One may read the IC50 as the concentration at which inhibition is half-maximal.

The values that follow come from ChEMBL document CHEMBL1146606, “CoMFA and homology-based models of the glycine binding site of N-methyl-d-aspartate receptor” (J Med Chem, 2003).

Experiment [1] addresses Glutamate [NMDA] receptor. Nature of the experiment: Inhibition of [3H]DCKA binding to N-methyl-D-aspartate glutamate receptor. It counts as protein-complex assay.
For experiment [2], the target named is Glutamate [NMDA] receptor. The experiment can be described thus: Compound was tested for inhibition of [3H]DCKA binding to N-methyl-D-aspartate glutamate receptor. It counts as protein-complex assay. Details: unit not given here.

A value given as a limit tells only on which side of the number the result lay.

For the compound `O=[N+]([O-])c1c(O)nc2ccc(Cl)cc2c1O`, the IC50 in experiment [1] is greater than 100000 nM. In experiment [2], this compound displayed a Log 1/IC50 of -2.
The compound `O=c1[nH]c2cc3c(c([N+](=O)[O-])c2[nH]c1=O)CCC3` returned a 50% inhibitory concentration (IC50) in experiment [1] of 3100 nM. The Log 1/IC50 in experiment [2] is -0.49.
As to `Cc1c(F)cc2nc(O)c(O)nc2c1[N+](=O)[O-]`, the IC50 in experiment [1] amounted to 95 nM. In experiment [2], the “Log 1/IC50” value is 1.02.
For `CCCCOc1c(F)cc2nc(O)c(O)nc2c1[N+](=O)[O-]`, the IC50 in experiment [1] was determined as 4300 nM. In experiment [2], this compound had a Log 1/IC50 of -0.63.
Consider `COc1c(Br)cc2nc(O)c(O)nc2c1[N+](=O)[O-]`, for which the IC50 in experiment [1] is 64 nM. Also, the “Log 1/IC50” value in experiment [2] was 1.19.
For the compound `O=Nc1c(O)nc2cc(Cl)ccc2c1O`, the IC50 in experiment [1] is 53 nM. Further, the “Log 1/IC50” value in experiment [2] stood at 1.28.
